Assay results published in EP3207939A2, “USE OF A PROTEIN/PEPTIDE COMPLEX FOR TREATING AND PREVENTING ATHEROSCLEROSIS, METHOD FOR TREATING AND PREVENTING ATHEROSCLEROSIS (VARIANTS)” (Diamondzlite Limited, priority 2014, dated 2016).
Like-named read-outs stand apart in the source and are kept apart here.

Tests used:
[1] = cited from earlier work
[2] = tested on: cultured atherosclerotic cells; assay: Inclusion of [3H] thymidine (proliferative activity) in cultured atherosclerotic cells; format: cell-based, human
Experimental: For research on the impact of the original PPC and PPPC with the conditional name "Cellex" (hereinafter - Cellex, as a modifier and activator of biological reactions) on the level of reduction of the atherogenic potential of blood serum of patients having atherosclerosis according to the known method, a primary culture of subendothelial cells of the human's aorta was obtained from various sections of the intima of the thoracic aorta of men and women aged 40-65 years within 1.5-3 hours after sudden death, which differed by the degree of atherosclerotic disease, then it was treated by collagenase, and the cells were cultured.

[3] = tested on: cells extracted from normal or damaged sections of the intima of human's aorta; assay: Determination of the synthesis of collagen ([3H]-proline inclusion); format: cell-based; details: Verapamil 5 x 10^-5 M; control 2500 ± 102 dpm/103
Experimental: Cells extracted from normal or damaged sections of the intima of human's aorta were incubated for 24 hours in the presence of 5 µCi/ml [3H]-proline. Upon completion of incubation, inclusion of marked proline into the culture medium fraction treated by collagenase was determined by the method of Peterkofsky and Diegelmann. Table 1. Influence of lipostabil, lovastatin and cellex on the cholesterol content in atherosclerotic cells of the intima of human's aorta in vitro.

[4] = tested on: primary culture of atherosclerotic cells; assay: Ex vivo model: volunteers' blood serum added to primary culture of atherosclerotic cells, intracellular cholesterol; format: cell-based, human
Experimental: For the ex vivo model, blood was taken from volunteers immediately prior to Cellex intake and after the corresponding intervals after the intranasal intake (after 2, 4, and 6 hours for screening studies and assessment of the short-term effect, as well as after 4, 8, 12, and 24 hours for the assessment of duration of the effect).
Volunteers took PPC - Cellex at once in the form of an intranasal spray in complex with polynucleotides in the form of sodium salts of DNA - PPPC, 400 µg of a 0.1% solution (per total protein and DNA) - 2 injections of 200 µg in each nasal duct in the morning, the drug for comparison was Verapamil in the dose of 400 mg; the control group received intranasally 50 mM of glycine-phosphate buffer solution with the same pH (7.8) and with the same regimen. Blood was taken prior to drug or control intake (time "0") and 1, 2, 4, and 8 hours after the intake. Samples were prepared from the bloodserum, and serum samples were added to the primary culture of atherosclerotic cells. […] Consequently, starting from the 1 st hour after single intake of the claimed drug and from the 2nd hour after Verapamil intake, blood serum acquires antiatherosclerotic properties manifested in the contribution to reverse cholesterol transport from atherosclerotic cells. Antiatherosclerotic properties of serum are preserved for at least 12 hours after Verapamil intake and up to 18 hours after intake of the claimed drug. Table 5. Comparative table of the antiatherogenic action of Cellex and Verapamil in the ex vivo model.

[5] = tested on: atherosclerotic cells of the intima of human's aorta; assay: Intracellular cholesterol and lipid content in cultured atherosclerotic cells, in vitro model
[6] = rabbits, single peroral administration; cited from earlier work
[7] = rabbits, 28 days, food with 1% cholesterol, 0.6 g of beta-carotene per 1 kg of food; cited from earlier work
[8] = hypersensitive rats, 125-500 mg per 1 kg of food with cholesterol-rich food, 44 days; cited from earlier work
[9] = guinea pigs, 12 weeks, cited from earlier work
[10] = smoking people, 20 mg/day, 14 weeks; cited from earlier work
[11] = long-term administration, daily dose of 3 g

In the case of N[C@H](Cc1cc(I)c(Oc2cc(I)c(O)c(I)c2)c(I)c1)C(=O)O [D-thyroxine], the “reduction of the concentration of low-density lipoproteins” value ([1]; daily dose of 4-8 mg) is given as 20%.

In the case of COc1ccc(CCN(C)CCCC(C#N)(c2ccc(OC)c(OC)c2)C(C)C)cc1OC (centres unmarked) [Verapamil], the “Inclusion of [3H] thymidine” value ([2]; Verapamil 10^-4 M) is reported as 20 ± 2 % of control, the “Inclusion of [3H] thymidine” value ([2]; Verapamil 10^-5 M) is reported as 34 ± 2 % of control and the “Inclusion of [3H] thymidine” value ([2]; Verapamil 10^-6 M) is reported as 50 ± 2 % of control. The “Inclusion of [3H] thymidine” value ([2]; Verapamil 10^-7 M) was 86 ± 7 % of control, the Synthesis of collagen [3] was 74 ± 5 % of control and the “Antiatherosclerotic properties of serum are preserved” value ([4]; after single intake) was “at least 12 hours”. The “blood serum acquires antiatherosclerotic properties, starting from” value ([4]; after single intake) was 2 h, the Intracellular cholesterol content ([4]; serum 1 hr after Verapamil 400 mg, control 221 ± 13 µg cholesterol per 1 mg cellular protein) was 97 ± 10 % of control and the Intracellular cholesterol content ([4]; serum 2 hr after Verapamil 400 mg) was 84 ± 6 % of control. For the same compound, the Intracellular cholesterol content ([4]; serum 4 hr after Verapamil 400 mg) was 77 ± 8 % of control, the Intracellular cholesterol content ([4]; serum 8 hr after Verapamil 400 mg) was 85 ± 4 % of control and the Intracellular cholesterol content ([4]; serum 12 hr after Verapamil 400 mg) was 90 ± 6 % of control. The Intracellular cholesterol content ([4]; serum 18 hr after Verapamil 400 mg) was 104 ± 4 % of control, the Triglycerides ([5]; Verapamil 5 x 10^-5 M, control 12.1 ± 1.7 µg/105) was 76 ± 2 % of control and the Free cholesterol ([5]; Verapamil 5 x 10^-5 M, control 46.8 ± 5.3 µg/105) was 90 ± 8 % of control. For the same compound, the Phospholipids ([5]; Verapamil 5 x 10^-5 M, control 71.4 ± 10.9 µg/105) was 61 ± 8 % of control, the Total cholesterol ([5]; Verapamil 10^-5 M) was 61 ± 4 % of control and the Total cholesterol ([5]; Verapamil 10^-6 M) was 82 ± 8 % of control. The Total cholesterol ([5]; Verapamil 10^-7 M, control 57.4 ± 1.2 µg/105) was 104 ± 5 % of control.

For CC(C)=CCC/C(C)=C/C=C/C(C)=C/C=C/C(C)=C/C=C/C=C(C)/C=C/C=C(C)/C=C/C=C(\C)CCC=C(C)C [lycopene], the “return of blood serum concentration to the initial level” value [6] is listed as 24 h and the “time of maximum concentration in blood serum” value [6] is listed as 8 h.

In the case of O=C(O)c1cccnc1 [nicotinic acid], the “cholesterol level in blood serum lowered” value [1, 11] is given as 10% and the “triglycerides in blood serum lowered” value [1, 11] is given as 20%.

For CC[C@H](C)C(=O)O[C@H]1C[C@@H](C)C=C2C=C[C@H](C)[C@H](CC[C@@H]3C[C@@H](O)CC(=O)O3)[C@H]21 [Lovastatin], the “Content of intracellular cholesterol” value ([5]; concentration 10^-6 M, control 105 ± 11, average of three independent experiments) was 110 ± 10 µg/mg.

In the case of CC1=C(/C=C/C(C)=C/C=C/C(C)=C/C=C/C=C(C)/C=C/C=C(C)/C=C/C2=C(C)CCCC2(C)C)C(C)(C)CCC1 [beta-carotene], the “LDL resistance to oxidation” value [7] is given as “no impact of beta-carotene on LDL resistance to oxidation was detected”, the “elasticity of endothelial vessels” value [7] is given as “elasticity of endothelial vessels was preserved” and the “cholesterol and triglyceride levels in blood serum” value [8] is given as “dose-dependent reduction”. The “sizes of sclerotic clots in aorta” value ([9]; 50 mg of beta-carotene/100 g of food) was “significant reduction”, the “cholesterol and triglyceride levels in blood serum” value ([9]; daily 0.2% cholesterol and 15-30 mg of beta-carotene) was “no verifiable differences” and the “beta-carotene level in blood serum increased” value [10] was 15 times. For the same compound, the “level of lipoproteins in blood serum” value [10] was “no visible effect was identified”.
